Experimental data: patent publication US10828317B2, “Method of treating bacterial infections” (priority 2016, dated 2020)
Where two headings read alike, the source gives them in different places.

Tests used:
M. luteus EN0455 = assay: MIC; assay type: cell-based, Micrococcus luteus; details: Micrococcus luteus, read-out: MIC
E. coli EN002 = assay: MIC, DtoIC; assay type: cell-based, Escherichia coli; details: Escherichia coli, read-out: MIC
P. aeruginosa EN0460 = assay: MIC; assay type: cell-based, Pseudomonas aeruginosa; details: Pseudomonas aeruginosa, read-out: MIC
P. aeruginosa EN0422 = assay: MIC; assay type: cell-based, Pseudomonas aeruginosa; details: Pseudomonas aeruginosa, read-out: MIC
E. coli EN012 = assay: MIC, WT; assay type: cell-based, Escherichia coli; details: Escherichia coli, read-out: MIC
K. pneumoniae EN0463 = assay: MIC; assay type: cell-based, Klebsiella pneumoniae; details: Klebsiella pneumoniae, read-out: MIC
A. baumannii EN016 = assay: MIC, WT; assay type: cell-based, Acinetobacter baumannii; details: Acinetobacter baumannii, read-out: MIC
E. coli EN001 = assay: MIC, WT (EN001 = EN0001, ATCC 25922); assay type: cell-based, Escherichia coli
P. aeruginosa EN014 = assay: MIC, WT; assay type: cell-based, Pseudomonas aeruginosa; details: Pseudomonas aeruginosa, read-out: MIC
K. pneumoniae EN006 = assay: MIC, WT (EN006 = EN0006, ATCC 13883); assay type: cell-based, Klebsiella pneumoniae; details: Klebsiella pneumoniae, read-out: MIC
K. pneumoniae EN0145 = assay: MIC, KPC-2; assay type: cell-based; details: Klebsiella pneumoniae, read-out: MIC
P. mirabilis ST19 EN0445 = assay: MIC; assay type: cell-based, Proteus mirabilis; details: Proteus mirabilis, read-out: MIC
P. mirabilis EN0457 = assay: MIC; assay type: cell-based, Proteus mirabilis; details: Proteus mirabilis, read-out: MIC
S. flexneri APV00907 = assay: MIC and antibiogram; assay type: cell-based; details: Shigella flexneri, Table 22A
From the text: Inhibition of Heliobacter is important in view of increasing resistance and its association to gastric cancer.

K. pneumoniae EN0244 = assay: MIC, colistinR; assay type: cell-based; details: Klebsiella pneumoniae, EN0244, combination didanosine+trimethoprim+uridine, Table 20; read-out: MIC
E. coli EN0235 = assay: microbe, parasite or virus in culture; assay type: cell-based; details: Escherichia coli

Question: Which MIC (M. luteus EN0455; EN0455, Combination 1 AZT+trimethoprim+uridine, Table 16) does the source give for `O=c1ccn([C@@H]2O[C@H](CO)[C@@H](O)[C@H]2O)c(=O)[nH]1` [Uridine, uridine] here?
Answer: 200 µg/mL

Question: What about the MIC (M. luteus EN0455; EN0455, Combination 2 AZT+trimethoprim+uridine+thymidine, Table 16) of the same molecule?
Answer: > 400 µg/mL

Question: What about the MIC (M. luteus EN0455; EN0455, combination AZT+trimethoprim+uridine, Table 6) of the same molecule?
Answer: 500 µg/mL

Question: What about the MIC (M. luteus EN0455; EN0455, combination FdUrd+trimethoprim+uridine, Table 8) of the same molecule?
Answer: 200 µg/mL

Question: And the MIC (M. luteus EN0455; EN0455, combination didanosine+trimethoprim+uridine, Table 10)?
Answer: 200 µg/mL

Question: What about the MIC (E. coli EN002; EN002, Combination 2 AZT+trimethoprim+uridine+thymidine, Table 16) of the same molecule?
Answer: 12.5 µg/mL

Question: And the MIC (E. coli EN002; EN002, combination AZT+trimethoprim+uridine, Table 6)?
Answer: 4 µg/mL

Question: What about the MIC (E. coli EN002; EN002, combination FdUrd+trimethoprim+uridine, Table 8) of the same molecule?
Answer: 6 µg/mL

Question: And the MIC (E. coli EN002; EN002, combination didanosine+trimethoprim+uridine, Table 10)?
Answer: 6 µg/mL

Question: What about the MIC (P. aeruginosa EN0460; EN0460, Combination 1 AZT+trimethoprim+uridine, Table 16) of the same molecule?
Answer: > 400 µg/mL

Question: And the MIC (P. aeruginosa EN0460; EN0460, Combination 2 AZT+trimethoprim+uridine+thymidine, Table 16)?
Answer: > 400 µg/mL

Question: And the MIC (P. aeruginosa EN0460; EN0460, combination AZT+trimethoprim+uridine, Table 6)?
Answer: > 1000 µg/mL

Question: What about the MIC (P. aeruginosa EN0460; EN0460, combination FdUrd+trimethoprim+uridine, Table 8) of the same molecule?
Answer: > 400 µg/mL

Question: What about the MIC (P. aeruginosa EN0460; EN0460, combination didanosine+trimethoprim+uridine, Table 10) of the same molecule?
Answer: > 400 µg/mL

Question: And the MIC (P. aeruginosa EN0422; EN0422, Combination 1 AZT+trimethoprim+uridine, Table 16)?
Answer: > 400 µg/mL

Question: And the MIC (P. aeruginosa EN0422; EN0422, Combination 2 AZT+trimethoprim+uridine+thymidine, Table 16)?
Answer: > 400 µg/mL

Question: And the MIC (P. aeruginosa EN0422; EN0422, combination AZT+trimethoprim+uridine, Table 6)?
Answer: > 1000 µg/mL

Question: And the MIC (P. aeruginosa EN0422; EN0422, combination FdUrd+trimethoprim+uridine, Table 8)?
Answer: > 400 µg/mL

Question: And the MIC (P. aeruginosa EN0422; EN0422, combination didanosine+trimethoprim+uridine, Table 10)?
Answer: > 400 µg/mL

Question: What about the MIC (E. coli EN012; EN012, combination FdUrd+trimethoprim+uridine, Table 8) of the same molecule?
Answer: 3 µg/mL

Question: What about the MIC (E. coli EN012; EN012, combination didanosine+trimethoprim+uridine, Table 10) of the same molecule?
Answer: 6 µg/mL

Question: And the MIC (K. pneumoniae EN0463; EN0463, Combination 1 AZT+trimethoprim+uridine, Table 16)?
Answer: 12.5 µg/mL

Question: What about the MIC (K. pneumoniae EN0463; EN0463, combination AZT+trimethoprim+uridine, Table 6) of the same molecule?
Answer: 16 µg/mL

Question: And the MIC (A. baumannii EN016; EN016, Combination 1 AZT+trimethoprim+uridine, Table 16)?
Answer: > 400 µg/mL

Question: What about the MIC (A. baumannii EN016; EN016, Combination 2 AZT+trimethoprim+uridine+thymidine, Table 16) of the same molecule?
Answer: > 400 µg/mL

Question: What about the MIC (A. baumannii EN016; EN016, combination AZT+trimethoprim+uridine, Table 6) of the same molecule?
Answer: > 1000 µg/mL

Question: And the MIC (A. baumannii EN016; EN016, combination FdUrd+trimethoprim+uridine, Table 8)?
Answer: 400 µg/mL

Question: And the MIC (A. baumannii EN016; EN016, combination didanosine+trimethoprim+uridine, Table 10)?
Answer: > 400 µg/mL

Question: And the MIC (E. coli EN001; Escherichia coli, EN001, Combination 1 AZT+trimethoprim+uridine, Table 16, read-out: MIC)?
Answer: 6.4 µg/mL

Question: What about the MIC (E. coli EN001; Escherichia coli, EN001, combination AZT+trimethoprim+uridine, Table 6, read-out: MIC) of the same molecule?
Answer: 16 µg/mL

Question: And the MIC (E. coli EN001; Escherichia coli, EN001, combination FdUrd+trimethoprim+uridine, Table 8, read-out: MIC)?
Answer: 13 µg/mL

Question: What about the MIC (E. coli EN001; Escherichia coli, EN001, combination didanosine+trimethoprim+uridine, Table 10, read-out: MIC) of the same molecule?
Answer: 13 µg/mL

Question: And the MIC (E. coli EN001; combination AZT+trimethoprim+uridine, Table 17B)?
Answer: 13 µg/mL

Question: What about the MIC (P. aeruginosa EN014; EN014, Combination 1 AZT+trimethoprim+uridine, Table 16) of the same molecule?
Answer: > 400 µg/mL

Question: And the MIC (P. aeruginosa EN014; EN014, Combination 2 AZT+trimethoprim+uridine+thymidine, Table 16)?
Answer: > 400 µg/mL

Question: And the MIC (P. aeruginosa EN014; EN014, combination AZT+trimethoprim+uridine, Table 6)?
Answer: > 1000 µg/mL

Question: What about the MIC (P. aeruginosa EN014; EN014, combination FdUrd+trimethoprim+uridine, Table 8) of the same molecule?
Answer: > 400 µg/mL

Question: What about the MIC (P. aeruginosa EN014; EN014, combination didanosine+trimethoprim+uridine, Table 10) of the same molecule?
Answer: > 400 µg/mL

Question: And the MIC (K. pneumoniae EN006; EN006, Combination 1 AZT+trimethoprim+uridine, Table 16)?
Answer: 12.5 µg/mL

Question: What about the MIC (K. pneumoniae EN006; EN006, combination AZT+trimethoprim+uridine, Table 6) of the same molecule?
Answer: 16 µg/mL

Question: What about the MIC (K. pneumoniae EN0145; EN0145, combination FdUrd+trimethoprim+uridine, Table 19) of the same molecule?
Answer: > 400 µg/mL

Question: And the MIC (K. pneumoniae EN0145; EN0145, combination didanosine+trimethoprim+uridine, Table 20)?
Answer: > 400 µg/mL

Question: And the MIC (P. mirabilis ST19 EN0445; ST19EN0445, Combination 2 AZT+trimethoprim+uridine+thymidine, Table 16)?
Answer: > 400 µg/mL

Question: What about the MIC (P. mirabilis ST19 EN0445; ST19EN0445, combination AZT+trimethoprim+uridine, Table 6) of the same molecule?
Answer: > 1000 µg/mL

Question: And the MIC (P. mirabilis EN0457; EN0457, Combination 1 AZT+trimethoprim+uridine, Table 16)?
Answer: 200 µg/mL

Question: And the MIC (P. mirabilis EN0457; EN0457, Combination 2 AZT+trimethoprim+uridine+thymidine, Table 16)?
Answer: > 400 µg/mL

Question: What about the MIC (P. mirabilis EN0457; EN0457, combination AZT+trimethoprim+uridine, Table 6) of the same molecule?
Answer: 500 µg/mL

Question: And the MIC (S. flexneri APV00907; APV00907, combination AZT+trimethoprim+uridine)?
Answer: 200 µg/mL

Question: And the MIC (S. flexneri APV00907; APV00907, combination FdUrd+trimethoprim+uridine)?
Answer: > 400 µg/mL

Question: What about the MIC (K. pneumoniae EN0244) of the same molecule?
Answer: > 400 µg/mL

Question: And the MIC (E. coli EN0235; EN0235, combination FdUrd+trimethoprim+uridine, Table 19)?
Answer: 6 µg/mL

Question: And the MIC (E. coli EN0235; EN0235, combination didanosine+trimethoprim+uridine, Table 20)?
Answer: 13 µg/mL
